This is an account of results in ChEMBL document CHEMBL1201862, “PubChem BioAssay data set” (2004).

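In this assay, cells in 96-well plates receive the compound at five concentrations for 48 hours. Endpoints are linearly interpolated between the surrounding concentrations. Here, GI50 denotes the concentration required for 50% inhibition of growth.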 Active and inactive are the calls of the source. Rule as the data show it: active = GI50 up to about 1.1 µM and inactive = higher.

Some test systems named below: EKVX; SK-OV-3; UACC-62; HOP-62; SK-MEL-2; NCI-H23; CAKI-1; LOX IMVI; KM12; HCC 2998; SNB-19; SK-MEL-5; COLO 205; MOLT-4; UO-31; OVCAR-4; A549; SF-268; SF-539; CCRF-CEM.
Holding throughout (assay): NCI-60 cell line screen, 48 h

Consider `[C-]#[N+]C(=C\c1ccc(O)cc1)/C(=C/c1ccc(O)cc1)[N+]#[C-]` [XANTOCILLIN], for which the GI50 with EKVX was 2.06 µM (inactive); in the assay with SK-OV-3 it was 3.39 µM (inactive); in the assay on UACC-62 it was 1.84 µM (inactive); in the assay on HOP-62, 3.21 µM (inactive); in the assay on SK-MEL-2 it was 2.07 µM (inactive); with NCI-H23 it was 2.31 µM (inactive). Also, the GI50 in the assay on CAKI-1 was 2.25 µM (inactive); in the assay on LOX IMVI, 1.64 µM (inactive); in the assay with KM12, 2.16 µM (inactive); with HCC 2998, 3.49 µM (inactive); in the assay with SNB-19, 2.55 µM (inactive); in the assay with SK-MEL-5, 2.04 µM (inactive). Further, the GI50 in the assay with COLO 205 was 20.1 µM (inactive); in the assay on MOLT-4, 1.57 µM (inactive); in the assay on UO-31, 1.48 µM (inactive); in the assay with OVCAR-4 it was 3.19 µM (inactive); with A549 it was 5.94 µM (inactive); in the assay on SF-268, 2.96 µM (inactive). The GI50 was 2.97 µM (inactive) with SF-539 and 0.76 µM (active) in the assay on CCRF-CEM.
